The target of this assay is Mitogen-activated protein kinase kinase kinase kinase 1 (Homo sapiens, UniProt Q92918). In words: Enzymatic Activity Assay: Recombinant HPK1 kinase domain produced via baculovirus infection of insect cells was obtained from Proteros (Proteros Biostructures #PR-0322) and was pre-activated in the presence of 2 mM ATP (Sigma-Aldrich, cat #GE27-2056-01) and 2 mM magnesium chloride for 16 hours at 4° C. The protein reaction mixture was then loaded to a desalting column (Thermo Fisher Scientific, Cat #89889) to remove excess ATP. HPK1 was eluted with buffer containing 20 mM Tris (2-Amino-2-(hydroxymethyl)propane-1,3-diol) pH 8.0, 150 mM NaCl, 2 mM dithiothreitol and 5% glycerol, and was frozen at −80° C. for later use. HPK1 dual phosphorylation was confirmed by mass spectrometry.Ten nanoliters of test compounds dissolved in DMSO at various concentrations were dispensed into a 384-well ProxiPlate (PerkinElmer #6008289). Five microliters of a solution of recombinant HPK1 diluted in HPK1 kinase assay buffer (50 mM BES [N,N-Bis(2-hydroxyethyl)-2-aminoethanesulfonic acid], pH 7.0; 10 mM magnesium chloride; 0.01% Triton X-100; 1 mM dithiothreitol; 0.01% bovine serum albumin; 0.1 mM sodium orthovanadate) was added to the compound-containing plate and was incubated for 15 minutes at 25° C. Five microliters of a mixture of ATP (Sigma-Aldrich #A6559) and peptide substrate STK S1 (Cisbio #61ST1BLC) diluted in HPK1 kinase assay buffer was then added to start the reaction. […].
Sequence of Mitogen-activated protein kinase kinase kinase kinase 1 (Q92918 whole entry, the tested form may be a part): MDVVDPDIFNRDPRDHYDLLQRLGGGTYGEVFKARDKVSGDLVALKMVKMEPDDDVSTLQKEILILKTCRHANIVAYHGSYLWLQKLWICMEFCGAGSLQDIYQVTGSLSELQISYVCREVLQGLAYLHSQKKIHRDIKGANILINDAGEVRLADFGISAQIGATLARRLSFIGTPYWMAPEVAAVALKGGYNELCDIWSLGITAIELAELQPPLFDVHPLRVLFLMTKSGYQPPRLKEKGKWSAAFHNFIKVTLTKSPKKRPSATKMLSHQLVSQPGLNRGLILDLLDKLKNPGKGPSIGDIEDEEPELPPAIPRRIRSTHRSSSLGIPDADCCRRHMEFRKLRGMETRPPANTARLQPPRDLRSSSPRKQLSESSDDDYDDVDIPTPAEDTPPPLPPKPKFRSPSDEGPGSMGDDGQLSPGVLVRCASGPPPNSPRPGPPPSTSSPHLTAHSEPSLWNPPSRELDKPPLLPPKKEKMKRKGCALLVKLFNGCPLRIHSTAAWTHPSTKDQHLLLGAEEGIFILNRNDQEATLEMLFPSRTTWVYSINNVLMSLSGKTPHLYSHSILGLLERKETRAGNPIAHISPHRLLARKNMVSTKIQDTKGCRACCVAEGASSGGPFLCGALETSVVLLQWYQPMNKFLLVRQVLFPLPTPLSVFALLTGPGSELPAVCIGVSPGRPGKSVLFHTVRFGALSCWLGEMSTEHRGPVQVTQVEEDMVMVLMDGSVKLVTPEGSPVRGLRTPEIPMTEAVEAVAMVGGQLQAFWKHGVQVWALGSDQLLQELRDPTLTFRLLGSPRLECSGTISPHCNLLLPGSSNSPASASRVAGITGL

Broadly, the IC50 is the concentration that inhibits the measured activity by half. As to `CC(C)n1cnc2cc(-c3ccc4c(c3)N([C@H]3C[C@@H](N5CCC(C)(C)C5)C3)C(=O)C43CCN(C(=O)[C@@H]4OCC[C@@H]4C)CC3)nc(Nc3ccncc3F)c21`, the half-maximal inhibitory concentration (IC50) amounted to 0.3 nM.

Regarding `CC(C)n1cnc2cc(-c3ccc4c(c3)N([C@H]3C[C@@H](N5CCC(C)(C)C5)C3)C(=O)C43CCN(C(=O)[C@H]4CC[C@@H](C)O4)CC3)nc(Nc3ccncc3F)c21`, the 50% inhibitory concentration (IC50) came to 0.2 nM.

The record behind these values is ChEMBL document CHEMBL5728586, “Substituted 6-azabenzimidazole compounds” (2021).
